Converted amounts (≈) assume the structure as drawn.
Key:
Experiment in all cases: ≥ marks a high value that may be exact or a test limit, other limits are often not marked, values filed in µg/mL are converted to µM
Leuconostoc lactis = tested on: Leuconostoc lactis
[1] = tested on: Staphylococcus aureus ATCC 49476
Candida albicans = tested on: Candida albicans
Staphylococcus aureus MR = tested on: Staphylococcus aureus MR
[2] = tested on: Pseudomonas aeruginosa ATCC 27853
Bacillus subtilis 168 = tested on: Bacillus subtilis 168

Compound	MIC (Leuconostoc lactis) [µM]	MIC [1] [µM]	MIC (Candida albicans) [µM]	MIC (Staphylococcus aureus MR) [µM]	MIC [2] [µM]	MIC (Bacillus subtilis 168) [µM]
CC[C@H](C)[C@H](NC(=O)[C@H](Cc1cnc[nH]1)NC(=O)[C@H](CCCCN)NC(=O)CNC(=O)[C@@H](NC(=O)[C@H](CO)NC(=O)[C@H](Cc1ccccc1)NC(=O)[C@H](CC(C)C)NC(=O)CNC(=O)CNC(=O)[C@@H](NC(=O)[C@@H](NC(=O)[C@H](Cc1cnc[nH]1)NC(=O)[C@H](Cc1cnc[nH]1)NC(=O)[C@@H](NC(=O)[C@@H](N)Cc1ccccc1)[C@@H](C)CC)[C@@H](C)CC)[C@@H](C)CC)C(C)C)C(=O)N[C@@H](Cc1cnc[nH]1)C(=O)N[C@@H](CCCN=C(N)N)C(=O)N[C@@H](CC(C)C)C(=O)N[C@H](C(=O)N[C@@H](CCCN=C(N)N)C(=O)N[C@@H](CCCN=C(N)N)C(=O)N[C@@H](CCCN=C(N)N)C(=O)N[C@@H](CCCN=C(N)N)C(=O)N[C@@H](CCCN=C(N)N)C(=O)O)[C@@H](C)CC [FIHHIIGGLFSVGKHIHRLIRRRRR]		5.2 (≈ 16 µg/mL)	41.6 (≈ 128 µg/mL)	10.4 (≈ 32 µg/mL)	41.6 (≈ 128 µg/mL)	
CC[C@H](C)[C@H](NC(=O)[C@H](CC(C)C)NC(=O)[C@H](CCCN=C(N)N)NC(=O)[C@H](Cc1cnc[nH]1)NC(=O)[C@H](C)NC(=O)[C@H](C)NC(=O)[C@H](CCCCN)NC(=O)CNC(=O)[C@H](C)NC(=O)[C@H](CO)NC(=O)[C@H](Cc1ccccc1)NC(=O)[C@H](CC(C)C)NC(=O)CNC(=O)CNC(=O)[C@@H](NC(=O)[C@@H](NC(=O)[C@H](Cc1cnc[nH]1)NC(=O)[C@H](Cc1cnc[nH]1)NC(=O)[C@@H](NC(=O)[C@@H](N)Cc1ccccc1)[C@@H](C)CC)[C@@H](C)CC)[C@@H](C)CC)C(=O)N[C@@H](CCCN=C(N)N)C(=O)N[C@@H](CCCN=C(N)N)C(=O)N[C@@H](CCCN=C(N)N)C(=O)N[C@@H](CCCN=C(N)N)C(=O)N[C@@H](CCCN=C(N)N)C(=O)O [FIHHIIGGLFSAGKAAHRLIRRRRR]		21.8 (≈ 64 µg/mL)	43.5 (≈ 128 µg/mL)	21.8 (≈ 64 µg/mL)	87.1 (≈ 256 µg/mL)	
CC[C@H](C)[C@H](NC(=O)[C@H](CC(C)C)NC(=O)[C@H](CCCN=C(N)N)NC(=O)[C@H](Cc1cnc[nH]1)NC(=O)[C@H](CCCN=C(N)N)NC(=O)[C@H](C)NC(=O)[C@H](CCCCN)NC(=O)CNC(=O)[C@H](C)NC(=O)[C@H](CO)NC(=O)[C@H](Cc1ccccc1)NC(=O)[C@H](CC(C)C)NC(=O)CNC(=O)CNC(=O)[C@@H](NC(=O)[C@@H](NC(=O)[C@H](Cc1cnc[nH]1)NC(=O)[C@H](Cc1cnc[nH]1)NC(=O)[C@@H](NC(=O)[C@@H](N)Cc1ccccc1)[C@@H](C)CC)[C@@H](C)CC)[C@@H](C)CC)C(=O)N[C@@H](CCCN=C(N)N)C(=O)N[C@@H](CCCN=C(N)N)C(=O)N[C@@H](CCCN=C(N)N)C(=O)N[C@@H](CCCN=C(N)N)C(=O)N[C@@H](CCCN=C(N)N)C(=O)O [FIHHIIGGLFSAGKARHRLIRRRRR]		≥ 169	42.3 (≈ 128 µg/mL)	≥ 169	> 169	
CC[C@H](C)[C@H](NC(=O)[C@H](C)NC(=O)[C@H](CCCCN)NC(=O)CNC(=O)[C@H](C)NC(=O)[C@H](CO)NC(=O)[C@H](Cc1ccccc1)NC(=O)[C@H](CC(C)C)NC(=O)CNC(=O)CNC(=O)[C@H](C)NC(=O)[C@H](C)NC(=O)[C@H](Cc1cnc[nH]1)NC(=O)[C@H](Cc1cnc[nH]1)NC(=O)[C@@H](NC(=O)[C@@H](N)Cc1ccccc1)[C@@H](C)CC)C(=O)N[C@@H](Cc1cnc[nH]1)C(=O)N[C@@H](CCCN=C(N)N)C(=O)N[C@@H](CC(C)C)C(=O)N[C@H](C(=O)N[C@@H](CCCN=C(N)N)C(=O)N[C@@H](CCCN=C(N)N)C(=O)N[C@@H](CCCN=C(N)N)C(=O)N[C@@H](CCCN=C(N)N)C(=O)N[C@@H](CCCN=C(N)N)C(=O)O)[C@@H](C)CC [FIHHAAGGLFSAGKAIHRLIRRRRR]		≥ 177	44.2 (≈ 128 µg/mL)	≥ 177	177 (≈ 512 µg/mL)	

Now from value to molecule:

MIC (Leuconostoc lactis) [µM]	MIC [1] [µM]	MIC (Candida albicans) [µM]	MIC (Staphylococcus aureus MR) [µM]	MIC [2] [µM]	MIC (Bacillus subtilis 168) [µM]	Compound
20.9 (≈ 50 µg/mL)						CC[C@H](C)[C@H](NC(=O)[C@H](CO)NC(=O)[C@H](CO)NC(=O)[C@@H](NC(=O)[C@H](CC(C)C)NC(=O)CN)C(C)C)C(=O)NCC(=O)N[C@@H](CCCCN)C(=O)N[C@@H](C)C(=O)N[C@@H](CC(C)C)C(=O)NCC(=O)NCC(=O)N[C@@H](CC(C)C)C(=O)N[C@@H](CC(C)C)C(=O)N[C@H](C(=O)N[C@@H](CC(=O)O)C(=O)N[C@H](C(=O)N[C@H](C(=O)N[C@@H](CCCCN)C(=O)N[C@@H](CO)C(=O)N[C@@H](CCCCN)C(=O)NCC(=O)N[C@@H](CCC(N)=O)C(=O)N1CCC[C@H]1C(=O)N[C@@H](C)C(=O)O)C(C)C)C(C)C)C(C)C [GLVSSIGKALGGLLVDVVKSKGQPA]
					3.2 (≈ 7.35 µg/mL)	CC[C@H](C)[C@H](NC(=O)[C@H](CCCCN)NC(=O)[C@H](CC(C)C)NC(=O)[C@H](Cc1ccccc1)NC(=O)[C@H](CCCCN)NC(=O)[C@H](CCCCN)NC(=O)[C@H](Cc1ccccc1)NC(=O)[C@H](C)NC(=O)[C@H](CCCCN)NC(=O)[C@H](CCCCN)NC(=O)[C@H](Cc1ccccc1)NC(=O)[C@H](CC(C)C)NC(=O)[C@H](CCCCN)NC(=O)[C@H](Cc1c[nH]c2ccccc12)NC(=O)[C@H](CCCCN)NC(=O)CN)C(=O)N[C@@H](CC(C)C)C(=O)N[C@@H](C)C(=O)N[C@@H](CS)C(=O)O [GKWKLFKKAFKKFLKILAC]
					7 (≈ 12.9 µg/mL)	CC[C@H](C)[C@H](NC(=O)[C@H](CS)NC(=O)[C@H](CCSC)NC(=O)[C@H](C)NC(=O)[C@H](CCCN=C(N)N)NC(=O)[C@@H](N)CC(C)C)C(=O)N[C@@H](CCCCN)C(=O)N[C@@H](Cc1c[nH]c2ccccc12)C(=O)N[C@@H](Cc1c[nH]c2ccccc12)C(=O)N[C@@H](CO)C(=O)NCC(=O)N[C@@H](CCCCN)C(=O)N[C@@H](Cc1cnc[nH]1)C(=O)N1CCC[C@H]1C(=O)N[C@@H](CCCCN)C(=O)O [LRAMCIKWWSGKHPK]
	≥ 52.3	26.2 (≈ 64 µg/mL)	26.2 (≈ 64 µg/mL)	105 (≈ 256 µg/mL)		CC[C@H](C)[C@H](N)C(=O)N[C@H](C(=O)NCC(=O)NCC(=O)N[C@@H](CC(C)C)C(=O)N[C@@H](Cc1ccccc1)C(=O)N[C@@H](CO)C(=O)N[C@@H](C)C(=O)NCC(=O)N[C@@H](CCCCN)C(=O)N[C@@H](C)C(=O)N[C@H](C(=O)N[C@@H](Cc1cnc[nH]1)C(=O)N[C@@H](CCCN=C(N)N)C(=O)N[C@@H](CC(C)C)C(=O)N[C@H](C(=O)N[C@@H](CCCN=C(N)N)C(=O)N[C@@H](CCCN=C(N)N)C(=O)N[C@@H](CCCN=C(N)N)C(=O)N[C@@H](CCCN=C(N)N)C(=O)N[C@@H](CCCN=C(N)N)C(=O)O)[C@@H](C)CC)[C@@H](C)CC)[C@@H](C)CC [IIGGLFSAGKAIHRLIRRRRR]

— DBAASP
